Columns and labels:
[1] = tested on: interaction of mtHtt with Tim23; assay: Co-immunoprecipitation mtHtt/Tim23; format: cell-based; conditions: HV-3 treatment; total cell lysates, IP/WB
Method: (§1) (b) Stick drawings of VCP and Htt main domains. […] Immunoprecipitates were analysed by WB with the indicated antibodies. […] VCP mitochondrial levels were determined by WB. Loading control: VDAC. Data are mean±s.e.m. (g–i) ANOVA with Holm-Sidak post hoc test.

[2] = tested on: interaction between VCP and UBXD1; assay: Co-immunoprecipitation VCP/UBXD1; format: cell-based; conditions: HV-3 treatment; total cell lysates, IP/WB
Method: as §1

[3] = biological target: T1, full-length mouse VCP/p97 (Mus musculus, UniProt Q01853); assay: Isothermal titration calorimetry (ITC); format: binding; conditions: 15 °C
T1 construct: The full-length mouse VCP/p97 (residues 2–806) was expressed with an N-terminal 6xHis-tag; 6xHis (N); host or cells: Escherichia coli Rosetta (DE3)
T1 sequence (Q01853 2-806): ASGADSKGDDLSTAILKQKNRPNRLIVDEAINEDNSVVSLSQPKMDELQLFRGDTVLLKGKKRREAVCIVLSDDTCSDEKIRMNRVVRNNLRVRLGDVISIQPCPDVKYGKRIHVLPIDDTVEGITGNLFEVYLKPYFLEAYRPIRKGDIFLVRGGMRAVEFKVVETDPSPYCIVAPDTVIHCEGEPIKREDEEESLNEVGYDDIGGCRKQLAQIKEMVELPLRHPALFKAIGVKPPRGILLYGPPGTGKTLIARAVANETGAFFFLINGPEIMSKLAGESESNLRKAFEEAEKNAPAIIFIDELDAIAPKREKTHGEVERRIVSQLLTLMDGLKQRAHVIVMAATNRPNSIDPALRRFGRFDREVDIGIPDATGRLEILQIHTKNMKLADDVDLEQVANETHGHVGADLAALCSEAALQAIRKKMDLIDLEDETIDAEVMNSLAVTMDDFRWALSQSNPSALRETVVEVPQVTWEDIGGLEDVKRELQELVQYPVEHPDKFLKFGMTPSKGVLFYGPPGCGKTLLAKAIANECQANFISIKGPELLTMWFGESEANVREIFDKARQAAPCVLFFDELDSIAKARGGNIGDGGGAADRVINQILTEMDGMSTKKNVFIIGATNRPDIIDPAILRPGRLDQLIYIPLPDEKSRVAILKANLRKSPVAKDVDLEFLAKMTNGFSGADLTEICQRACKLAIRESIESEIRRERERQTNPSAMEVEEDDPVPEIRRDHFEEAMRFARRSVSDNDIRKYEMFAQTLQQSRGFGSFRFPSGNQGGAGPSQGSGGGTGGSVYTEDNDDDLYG
Method: The full-length mouse VCP/p97 (residues 2–806) was expressed with an N-terminal 6xHis-tag (Addgene: plasmid # 12373) in the Rosetta (DE3) strain of Escherichia coli (Novagen) as previously described. Briefly, the cells were grown in LB media supplemented with Kanamycin and induced at OD∼1.0 for 16 h at 18 °C. Cells were homogenized in Buffer A (500 mM KCl, 25 mM Hepes pH 8.0, and 2 mM β-mercaptoethanol) in the presence of EDTA-free Complete Protease Inhibitor (Roche) and 2 mM PMSF. The lysate was cleared by centrifugation at 45,000 g for 1 h at 4 °C. Supernatant was incubated with 2 ml of Ni-NTA agarose resin (Qiagen) for 2 h at 4 °C. The resin was washed with Buffer A containing 50 mM imidazole and eluted with Buffer A containing 400 mM imidazole. VCP protein was further purified by passing through Superdex 200 increase 10/300 GL (GE Healthcare) size exclusion column equilibrated with Buffer B (250 mM KCL, 25 mM Hepes pH 8.0, 2 mM β-mercaptoethanol and 1 mM MgCl2). The fractions containing the pure sample, as determined by SDS–PAGE analysis, were pooled and concentrated to a final concentration of ∼3–5 mg ml^−1.
Binding of HV-3 peptide to VCP was measured by isothermal titration calorimetry on a MicroCal ITC200 (GE Healthcare). Before the calorimetric titrations, the protein was exchanged into Buffer C (100 mM NaCl, 10 mM Hepes, pH 8.0) on a PD-10 column (Amersham Biosciences) and concentrated to ∼5–6 mg ml^−1. The final concentration of protein in the cell (∼60–70 μM) was determined on a NanoDrop Spectrophotometer (Thermo Scientific NanoDrop 2000) using a molecular weight of 89.32 KDa and a molar extinction coefficient of […]. The HV-3 peptide was dissolved in Buffer C to a final concentration of 2 mM and loaded into the syringe. The measurements were made at a constant cell temperature of 15 °C and repeated at least three times. Thirty successive injections of 1.2 μl each were titrated into the cell with constant stirring at 1,000 r.p.m. An equilibration time of 150 s was set between consecutive injections. The binding isotherms were analysed with the MicroCal Origin software. For measurements of heat of dilution, the protein sample in the cell was replaced by Buffer C and all other conditions were kept identical.

[4] = tested on: YAC128 mice; assay: DARPP-32 protein level in YAC128 striatal extracts; format: in vivo, mouse; conditions: 3 mg/kg/day, n=6
Method: YAC128 mice (Tg) and their age-matched wt littermates were implanted with an osmotic pump containing TAT control peptide or HV-3 peptide (3 mg/kg/day, each) starting from the age of 3 months. The pump was replaced once every month. By the age of 12 months, the treatments were terminated and the mouse samples were harvested for analysis.
Protein concentrations were determined by Bradford assay. Protein was resuspended in Laemmli buffer, loaded on SDS–PAGE, and transferred onto nitrocellulose membranes. Membranes were probed with the indicated antibodies, followed by visualization with ECL. Representative blots have been cropped for presentation. Images of full-size blots are presented in Supplementary Fig. 9.

[5] = tested on: HD patient-iPS cell derived neurons; assay: Mitochondrial mass (Mitotracker green); format: cell-based, human; conditions: 1 μM per day for 5 days
Method: iPS cells from a normal subject and a HD patient (carrying 41 CAG repeats) were differentiated into neurons using the protocol from our previous studies. Briefly, iPS cells were plated onto 6-well plates precoated with 2.5% Matrigel and allowed to reach 90% confluence in feeder-free medium. For the first 10 days, cells were treated with SB431542 (10 μM; Tocris Bioscience) and Noggin (100 ng/ml) in Neural Media (NM) containing Neurobasal and DMEM (1:1), B27 supplement minus vitamin A (50 × , Invitrogen), N2 supplement (100 × , Invitrogen), GlutaMax (Invitrogen, 100 × ), FGF2 ([…]) and EGF ([…]), 100 units per ml penicillin and 100 μg ml^−1 streptomycin). […]
To determine mitochondrial mass in cultures, cells were stained with antibodies against Tom20 or stained with Mitotracker green. The fluorescent density of Tom20 (1:500) or mitotracker green was quantitated using NIH Image J software. […] The images were visualized by microscope and quantitation of the density of red fluorescence was carried out using NIH ImageJ software. For immunocytochemistry study, at least 100 cells per group were counted and quantitated by an observer blind to experimental conditions.

SMILES: CSCC[C@H](NC(=O)[C@@H](NC(=O)[C@H](CC(C)C)NC(=O)[C@@H](NC(=O)[C@H](Cc1c[nH]cn1)NC(=O)CCCCCNC(=O)[C@H](CCCNC(=N)N)NC(=O)[C@H](CCCNC(=N)N)NC(=O)[C@H](CCCNC(=N)N)NC(=O)[C@H](CCC(N)=O)NC(=O)[C@H](CCCNC(=N)N)NC(=O)[C@H](CCCNC(=N)N)NC(=O)[C@H](CCCCN)NC(=O)[C@H](CCCCN)NC(=O)[C@H](CCCNC(=N)N)NC(=O)CNC(=O)[C@@H](N)Cc1ccc(O)cc1)C(C)C)C(C)C)C(=O)N[C@@H](CS)C(=O)N[C@@H](C)C(=O)N[C@H](C(N)=O)[C@@H](C)O [HV-3]
- interaction of mtHtt with Tim23 [1]: did not influence the interaction of mtHtt with Tim23
- interaction between VCP and UBXD1 [2]: nor did it influence the interaction between VCP and its known binding protein UBXD1
- Kd ([3]; 100 mM NaCl, 10 mM Hepes pH 8.0, protein ∼60–70 μM, HV-3 2 mM in syringe, repeated at least three times): 17.9 ± 7 µM
- n (stoichiometry) ([3]; pH 8.0): 2.02±0.23
- ΔH ([3]; pH 8.0): -2.145 ± 0.65 kcal/mol
- ΔS ([3]; pH 8.0): 13.97±3.4 cal mol^−1 deg^−1
- DARPP-32 protein level [4]: significantly increased DARPP-32 levels in the two mouse models
- mitochondrial mass [5]: corrected these aberrant events

From PMC5007466, “VCP recruitment to mitochondria causes mitophagy impairment and neurodegeneration in models of Huntington's disease” (Nature Communications, 2016)
